The target in one assay is T1, GPR139 (Homo sapiens, UniProt Q6DWJ6).
T1 construct: expressed in transfected cells; host or cells: HEK293
T1 sequence (Q6DWJ6 1-353): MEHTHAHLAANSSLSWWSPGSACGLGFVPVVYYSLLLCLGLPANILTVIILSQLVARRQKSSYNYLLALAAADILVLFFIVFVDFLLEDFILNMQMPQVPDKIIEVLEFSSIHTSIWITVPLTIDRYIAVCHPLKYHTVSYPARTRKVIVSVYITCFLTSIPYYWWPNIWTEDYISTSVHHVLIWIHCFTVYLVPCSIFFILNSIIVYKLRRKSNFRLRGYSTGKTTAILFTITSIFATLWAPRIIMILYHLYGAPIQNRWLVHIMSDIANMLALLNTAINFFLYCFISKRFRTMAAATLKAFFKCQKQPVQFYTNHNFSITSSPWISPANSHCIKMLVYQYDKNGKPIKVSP
In words: GPR139 FLIPR cell calcium signal detection in GPR139-transfected HEK293 cells. The assay is classed as cell-based. The conditions noted are these: HEK293 cells transfected with GPR139, read-out: EC50 values of compounds for GPR139. The protocol: HEK293 cells were grown in a 10 cm culture dish containing DMEM complete medium (containing glutamine, sodium pyruvate, penicillin/streptomycin, 10% fetal bovine serum) and incubated at 37° C. in a 5% CO2 incubator until 90% confluency. Then subculture twice a week at a ratio of 1:5. During cell passaging, the culture medium was first completely removed, washed once with 4 mL of DPBS, and then 3 mL of trypsin digestion solution was added and mixed well. When cell dissociation was observed, the trypsin solution was aspirated and 5 mL of complete DMEM medium was added. The cells were dispersed by pipetting, and 1 mL of cell suspension was added to each of five new 10 cm culture dishes. Then, 7 mL of complete DMEM medium was supplemented to each dish. After mixing, the cells were cultured at 37° C. in a 5% CO2 incubator.
On the transfection day, cells were digested and seeded into one 10 cm culture dish at appropriate density. 6 mL of DMEM/F12 medium (containing glutamine, sodium pyruvate, HEPES, and fetal bovine serum) was added, and the cells were cultured for 5 hours at 37° C. in 5% CO2. A 50 mL sterile centrifuge tube (Tube A) was taken, and 1 mL of serum-free DMEM/F12 medium (containing glutamine, sodium pyruvate, and HEPES) was added, followed by 10 μg of GPR139 DNA. The mixture was mixed well. Another 50 mL sterile centrifuge tube (Tube B) was taken, and 1 mL of serum-free DMEM medium (containing glutamine, sodium pyruvate, and HEPES) was added, followed by 60 μL of Fugene HD transfection reagent. The mixture was mixed well. 1 mL of Fugene HD transfection reagent from Tube B was transferred to Tube A, mixed well, and incubated at room temperature for 20 minutes. 2 mL of DMEM/F12 medium (containing glutamine, sodium pyruvate, HEPES, and fetal bovine serum) was added to Tube A. After mixing, 4 mL of mixture from Tube A was transferred to the prepared 10 cm dish (total volume 10 mL). The cells were cultured for 20-24 hours at 37° C. in 5% CO2.
The next day, the transfected cells were digested with trypsin digestion solution, and appropriate DMEM/F12 medium (containing glutamine, sodium pyruvate, HEPES, penicillin/streptomycin, fetal bovine serum) was added. The cells were seeded into Matrigel coated 384-well plates with a cell density of 6.67×10^6 cells/mL, 30 μL/well. The 384-well plates were cultured at 37° C. in 5% CO2.
On the third day, 10 μL/well of FLIPR dye (diluted in HEPES solution containing Pluronic and Probenecid) was added to the 384-well cell plate. And the plate was incubated for 40 minutes at 37° C. in 5% CO2. Diluted compounds were added to the cell plate and calcium signals were measured using a FLIPR plate reader.
Data were analyzed using XL-fit software to obtain EC50 values for each compound.

The next assay has as its system mice in Forced Swim Test. In words: Mouse Forced Swim Test. Type of assay: in vivo. The conditions noted are these: male CD1 (ICR) mice; i.p. 2.5 mg/mL solution at 0.1 mL/10 g; test 10 minutes after injection; FIG. 3. The protocol: Mouse strain: Male Crl: CD1 (ICR) mice; Weight: 35-40 g; Quantity: 16 pieces
Group 1, placebo group: 8 mice, 4 mice per cage;
Group 2, NRB181 group: 8 mice, 4 mice per cage.
20.3.1 Preparation of placebo before experiment: 10% DMSO+saline.
20.3.2 Preparation of compound NRB181 before experiment: 10 mg of NRB181 was weighed and added to 4 mL of placebo, mixed well.
20.3.4 On the morning of the experimental day, all mice were weighed and then evenly divided into each group based on their weight, with 8 mice per group, for a total of 16 mice.
20.3.5 The mice were transferred to the behavioral laboratory and allowed to adapt for 3 hours.
20.3.6 Drug injection: mice of Group 1 received intraperitoneal injection of placebo at a dose of 0.1 mL/10 g; after Forced Swim Test of the mice in Group 1, mice in Group 2 were intraperitoneally injected with compound NRB181 at a dose of 0.1 mL/10 g.
Mice of Group 1 underwent Forced Swim Test in sequence 10 minutes after injection. The mice were placed in a glass jar (diameter 10 cm, height 25 cm; water depth 15 cm, water temperature 23° C.) and swam for 6 minutes. The first 2 minutes were the adaptation period, and the last 4 minutes were the experimental period; The software records the immobility time, swimming time, and climbing time of mice within 4 minutes. […]

Each structure is given as a SMILES string.

Usually EC50 stands for the midpoint of the concentration-response curve. Turning to `C[C@H](NC(=O)CNC(=O)c1cc(Cl)ccn1)c1c(F)cccc1F` [NRB181], on GPR139, the EC50 was in the range of 0.1 to 100 nM. For the same compound, the “time of despair (immobility time) in Forced Swim Test” value in the assay on mice in Forced Swim Test was “significantly reduce”.

For the origin of these results see US20260166016A1, “GPR139 RECEPTOR AGONIST, PREPARATION METHOD THEREFOR, AND APPLICATION THEREOF” (NEUBO APPTECH CO., LTD., priority 2022, published 2026).
